# Data from publication PMC6277767, “Broad and Region-Specific Impacts of the Synthetic Cannabinoid CP 55,940 in Adolescent and Adult Female Mouse Brains” (Frontiers in Molecular Neuroscience, 2018).
# System: CD1 female mouse brain lipidome
# Assay: Brain-region lipid levels (HPLC/MS/MS lipidomics) 2 h after single i.p. 3 mg/kg CP 55,940 vs vehicle
# Format: in vivo
# Protocol: The Bloomington Institutional Animal Care and Use Committee of Indiana University reviewed and approved the animal procedures. Female mice from the CD1 strain were utilized to match our study examining THC’s effects on the brain lipidome ([Leishman et al., 2018]). Mice were given a single i.p. injection of either 3 mg/kg CP or 1:1:18 cremophor:ethanol:saline vehicle (please refer to the section “3 mg/kg CP Is Relevant for Synthetic Cannabinoid Abuse and Has Stronger Effects on the Female Mouse Brain Lipidome During Adolescence” for a justification of dose and use of female mice). Three different age groups were given injections: PND 35 and PND 50 adolescents, and adult mice (PND 113). At least eight mice in each age group received CP and at least eight received vehicle. Matching the THC study time course ([Leishman et al., 2018]), mice were sacrificed via rapid decapitation 2 h after injection. Brains were immediately removed and flash-frozen in liquid nitrogen, and then stored at -80°C until dissections were performed. Brains were dissected on an ice-cold dissection plate into the following regions: STR, HIPP, CER, THAL, CTX, HYP, MID, and STEM. These abbreviations for these brain areas will be used exclusively when discussing the results generated by these specific dissections. Each dissected area was immediately placed in liquid nitrogen and then stored at -80°C until used for lipid extraction.
# Tissue extracts were performed as previously described ([Bradshaw et al., 2006]; [Stuart et al., 2013]; [Raboune et al., 2014]; [Leishman et al., 2016a],[b], [2017], [2018]). First, samples were shock frozen in liquid nitrogen, weighed, and transferred to a centrifuge tube. The mass of the largest sample was multiplied by 50 to determine how many milliliters of HPLC-grade methanol (Fisher, Fair Lawn, NJ, United States) to add. Then, samples were spiked with 500 pmol deuterium-labeled NAGly (d8NAGly; Cayman Chemical, Ann Arbor, MI, United States). Samples were placed on ice in darkness for 2 h then individually homogenized and centrifuged at 19,000 × g for 20 min at 20°C. Supernatants were diluted with HPLC water (purified in house) to make a solution of 75% water, 25% supernatant. Lipids were partially purified on C18 solid phase extraction columns (Agilent, Palo Alto, CA, United States). A series of four elutions with 1.5 mL of 60%, 75%, 85%, and 100% methanol were collected ([Stuart et al., 2013]; [Leishman et al., 2016a],[b], [2018]).
# As previously described ([Bradshaw et al., 2006]; [Tan et al., 2006]; [Smoum et al., 2010]; [Stuart et al., 2013]; [Tortoriello et al., 2013]; [Raboune et al., 2014]; [Leishman et al., 2016a],[b], [2017], [2018]), samples were analyzed using an Applied Biosystems API 3000 triple quadrupole mass spectrometer with electrospray ionization (Foster City, CA, United States). Using an Agilent XDB-C18 reversed phase analytical column and optimized mobile phase gradients, 20 μL from each elution were chromatographed. Two Shimadzu 10ADvp pumps (Columbia, MD, United States) provided the pressure for gradient elution. Mobile phase A: 20% methanol, 80% water (v/v) and 1 mM ammonium acetate (Sigma, St. Louis, MO, United States). Mobile phase B: 100% methanol, 1 mM ammonium acetate. Every method run began with 0% mobile phase B, reached 100% mobile phase B flowing at 0.2 mL/min, and gradually returned to 0% mobile phase B.
# This screening library will be referred to as the lipidome when discussing data from this study. HPLC/MS/MS data were analyzed using Analyst software (Applied Biosystems) ([Bradshaw et al., 2006]; [Tan et al., 2006]; [Stuart et al., 2013]; [Tortoriello et al., 2013]; [Raboune et al., 2014]; [Leishman et al., 2016a],[b], [2017], [2018]). Chromatograms (Supplementary Figure 3) were generated by determining the retention time of analytes from the analytical column with a [M-1] or [M+1] parent peak and a fragmentation peak corresponding to the programmed values. […]
# [1] = PND 35 midbrain, 3mg/kg, one-way ANOVA
smiles,measurement,setting,value
"CCCCCCC(C)(C)c1ccc([C@@H]2C[C@H](O)CC[C@H]2CCCO)c(O)c1 [CP 55,940]",N-docosahexaenoyl methionine: Magnitude (x Veh level),"PND 35 midbrain, 3mg/kg",0.77 x Veh level
same,N-docosahexaenoyl serine: Magnitude (x Veh level),"PND 35 midbrain, 3mg/kg",0.77 x Veh level
same,N-docosahexaenoyl tyrosine: Magnitude (x Veh level),"PND 35 midbrain, 3mg/kg",0.79 x Veh level
same,N-docosahexaenoyl valine: Magnitude (x Veh level),"PND 35 midbrain, 3mg/kg",1.67 x Veh level
same,N-linoleoyl ethanolamine: Magnitude (x Veh level),"PND 35 midbrain, 3mg/kg",1.24 x Veh level
same,N-oleoyl GABA: Magnitude (x Veh level),"PND 35 midbrain, 3mg/kg",0.81 x Veh level
same,N-oleoyl ethanolamine: Magnitude (x Veh level),"PND 35 midbrain, 3mg/kg",0.85 x Veh level
same,N-oleoyl phenylalanine: Magnitude (x Veh level),"PND 35 midbrain, 3mg/kg",1.11 x Veh level
same,N-oleoyl valine: Magnitude (x Veh level),"PND 35 midbrain, 3mg/kg",1.48 x Veh level
same,N-palmitoyl leucine: Magnitude (x Veh level),"PND 35 midbrain, 3mg/kg",1.40 x Veh level
same,N-palmitoyl phenylalanine: Magnitude (x Veh level),"PND 35 midbrain, 3mg/kg",1.31 x Veh level
same,N-palmitoyl valine: Magnitude (x Veh level),"PND 35 midbrain, 3mg/kg",1.83 x Veh level
same,N-stearoyl methionine: Magnitude (x Veh level),"PND 35 midbrain, 3mg/kg",1.15 x Veh level
same,N-stearoyl tyrosine: Magnitude (x Veh level),"PND 35 midbrain, 3mg/kg",0.82 x Veh level
same,N-stearoyl valine: Magnitude (x Veh level),"PND 35 midbrain, 3mg/kg",1.40 x Veh level
same,PGE2: Magnitude (x Veh level),"PND 35 midbrain, 3mg/kg",1.15 x Veh level
same,PGF2α: Magnitude (x Veh level),"PND 35 midbrain, 3mg/kg",1.22 x Veh level
same,phoshoLEA: Magnitude (x Veh level),"PND 35 midbrain, 3mg/kg",1.41 x Veh level
same,2-linoleoyl glycerol: Direction (rel to Veh),[1],↓
same,6-ketoPGF1α: Direction (rel to Veh),[1],↓
same,Arachidonic acid: Direction (rel to Veh),[1],↓
same,N-arachidonoyl GABA: Direction (rel to Veh),[1],↓
same,N-arachidonoyl alanine: Direction (rel to Veh),[1],↓
same,N-arachidonoyl glycine: Direction (rel to Veh),[1],↓
same,N-arachidonoyl serine: Direction (rel to Veh),[1],↓
same,N-arachidonoyl taurine: Direction (rel to Veh),[1],↓
same,N-arachidonoyl tyrosine: Direction (rel to Veh),[1],↓
same,N-docosahexaenoyl GABA: Direction (rel to Veh),[1],↓
same,N-docosahexaenoyl alanine: Direction (rel to Veh),[1],↓
same,N-docosahexaenoyl glycine: Direction (rel to Veh),[1],↓
same,N-docosahexaenoyl leucine: Direction (rel to Veh),[1],↑
same,N-docosahexaenoyl methionine: Direction (rel to Veh),[1],↓
same,N-docosahexaenoyl serine: Direction (rel to Veh),[1],↓
same,N-docosahexaenoyl tyrosine: Direction (rel to Veh),[1],↓
same,N-docosahexaenoyl valine: Direction (rel to Veh),[1],↑
same,N-linoleoyl ethanolamine: Direction (rel to Veh),[1],↑
same,N-oleoyl GABA: Direction (rel to Veh),[1],↓
same,N-oleoyl ethanolamine: Direction (rel to Veh),[1],↓
same,N-oleoyl phenylalanine: Direction (rel to Veh),[1],↑
same,N-oleoyl valine: Direction (rel to Veh),[1],↑
same,N-palmitoyl leucine: Direction (rel to Veh),[1],↑
same,N-palmitoyl phenylalanine: Direction (rel to Veh),[1],↑
same,N-palmitoyl valine: Direction (rel to Veh),[1],↑
same,N-stearoyl methionine: Direction (rel to Veh),[1],↑
same,N-stearoyl tyrosine: Direction (rel to Veh),[1],↓
same,N-stearoyl valine: Direction (rel to Veh),[1],↑
same,PGE2: Direction (rel to Veh),[1],↑
same,PGF2α: Direction (rel to Veh),[1],↑
same,phoshoLEA: Direction (rel to Veh),[1],↑
same,2-arachidonoyl-sn-glycerol mean level,PND 35 striatum,8.26E-11 moles per gram
same,2-linoleoyl-sn-glycerol mean level,PND 35 striatum,6.79E-11 moles per gram
same,2-oleoyl-sn-glycerol mean level,PND 35 striatum,6.52E-10 moles per gram
same,2-palmitoyl-sn-glycerol mean level,PND 35 striatum,3.66E-10 moles per gram
same,6-ketoPGF1α mean level,PND 35 striatum,5.31E-12 moles per gram
same,Arachidonic acid mean level,PND 35 striatum,1.87E-09 moles per gram
same,Linoleic acid mean level,PND 35 striatum,4.78E-10 moles per gram
same,N- stearoyl valine mean level,PND 35 striatum,4.54E-13 moles per gram
same,N-arachidonoyl GABA mean level,PND 35 striatum,7.34E-12 moles per gram
same,N-arachidonoyl alanine mean level,PND 35 striatum,7.95E-12 moles per gram
same,N-arachidonoyl ethanolamine mean level,PND 35 striatum,1.25E-11 moles per gram
same,N-arachidonoyl glycine mean level,PND 35 striatum,2.49E-11 moles per gram
same,N-arachidonoyl phenylalanine mean level,PND 35 striatum,5.08E-13 moles per gram
same,N-arachidonoyl serine mean level,PND 35 striatum,2.14E-12 moles per gram
same,N-arachidonoyl taurine mean level,PND 35 striatum,4.32E-11 moles per gram
same,N-arachidonoyl tyrosine mean level,PND 35 striatum,3.18E-13 moles per gram
same,N-docosahexaenoyl GABA mean level,PND 35 striatum,7.6E-13 moles per gram
same,N-docosahexaenoyl alanine mean level,PND 35 striatum,3E-12 moles per gram
same,N-docosahexaenoyl ethanolamine mean level,PND 35 striatum,1.6E-11 moles per gram
same,N-docosahexaenoyl glycine mean level,PND 35 striatum,1.04E-11 moles per gram
same,N-docosahexaenoyl leucine mean level,PND 35 striatum,5.34E-13 moles per gram
same,N-docosahexaenoyl phenylalanine mean level,PND 35 striatum,5.57E-13 moles per gram
same,N-docosahexaenoyl serine mean level,PND 35 striatum,9.97E-12 moles per gram
same,N-linoleoyl alanine mean level,PND 35 striatum,1.57E-12 moles per gram
same,N-linoleoyl ethanolamine mean level,PND 35 striatum,3.02E-11 moles per gram
same,N-linoleoyl glycine mean level,PND 35 striatum,1.9E-12 moles per gram
same,N-linoleoyl serine mean level,PND 35 striatum,4.58E-11 moles per gram
same,N-oleoyl GABA mean level,PND 35 striatum,1.45E-12 moles per gram
same,N-oleoyl alanine mean level,PND 35 striatum,6.67E-12 moles per gram
same,N-oleoyl ethanolamine mean level,PND 35 striatum,6.1E-11 moles per gram
same,N-oleoyl glycine mean level,PND 35 striatum,1.1E-11 moles per gram
same,N-oleoyl leucine mean level,PND 35 striatum,1.08E-12 moles per gram
same,N-oleoyl methionine mean level,PND 35 striatum,9.72E-13 moles per gram
same,N-oleoyl phenylalanine mean level,PND 35 striatum,6.72E-13 moles per gram
same,N-oleoyl serine mean level,PND 35 striatum,2.35E-10 moles per gram
same,N-oleoyl tyrosine mean level,PND 35 striatum,1.91E-13 moles per gram
same,N-oleoyl valine mean level,PND 35 striatum,3.53E-13 moles per gram
same,N-palmitoyl GABA mean level,PND 35 striatum,3.96E-12 moles per gram
same,N-palmitoyl alanine mean level,PND 35 striatum,1.47E-11 moles per gram
same,N-palmitoyl ethanolamine mean level,PND 35 striatum,3.18E-11 moles per gram
same,N-palmitoyl glycine mean level,PND 35 striatum,2.93E-11 moles per gram
same,N-palmitoyl leucine mean level,PND 35 striatum,2.54E-12 moles per gram
same,N-palmitoyl methionine mean level,PND 35 striatum,1.86E-12 moles per gram
same,N-palmitoyl phenylalanine mean level,PND 35 striatum,1.48E-12 moles per gram
same,N-palmitoyl proline mean level,PND 35 striatum,1.03E-12 moles per gram
same,N-palmitoyl serine mean level,PND 35 striatum,3.33E-11 moles per gram
same,N-palmitoyl tryptophan mean level,PND 35 striatum,2.09E-13 moles per gram
same,N-palmitoyl tyrosine mean level,PND 35 striatum,3.84E-13 moles per gram
same,N-palmitoyl valine mean level,PND 35 striatum,9.76E-13 moles per gram
same,N-stearoyl GABA mean level,PND 35 striatum,3.5E-12 moles per gram
same,N-stearoyl alanine mean level,PND 35 striatum,1.12E-11 moles per gram
same,N-stearoyl ethanolamine mean level,PND 35 striatum,9E-12 moles per gram
same,N-stearoyl glycine mean level,PND 35 striatum,1.64E-11 moles per gram
